Results on 14 compounds are retold here after patent US12497365B2, “4-pyridinyl formamide compound or derivative thereof, preparation method therefor, herbicidal composition and use thereof” (Qingdao Kingagroot Chemical Compound Co., Ltd., priority 2019, dated 2025).

Holding throughout (assay): Weeding effect in post-emergence stage
Common to all, as to assay type: in vivo
Holding throughout (settings): active ingredient 2000 g/ha, 3 weeks after application, fresh weight control rate

Assay [1] has as its system Abutilon theophrasti. Summed up: (§1)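 Read-out is growth control rate based on fresh weight, assessed 3 weeks after treatment in the greenhouse. Plants were sprayed at the 2-3 leaf stage with compound dissolved in acetone, plus Tween 80 and methyl oleate emulsifiable concentrate, at doses from 125 to 2000 g/ha.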
Assay [2] has as its system Amaranthus retroflexus L. Summed up: as §1
The test system of assay [3] is Chenopodium album. Summed up:
as §1

The test system of assay [4] is Descurainia sophia. Put shortly: as §1

Molecules are shown by their SMILES.

As for `Cn1nnnc1NC(=O)c1ccnc(-c2ccc(CNC(=O)OC(C)(C)C)s2)c1Cl` [Compound 1-2004], the “Weeding effect, activity level (growth control rate), Abutilon theophrasti” value (shortened to “Weeding effect … Abutilon theophrasti”) in assay [1] was 5 (Level 5: growth control rate is above 85%). Moreover, the “Weeding effect, activity level (growth control rate), Amaranthus retroflexus L.” value (shortened to “Weeding effect … Amaranthus retroflexus L.”) in assay [2] is reported as 5 (Level 5: growth control rate is above 85%). Further, the “Weeding effect, activity level (growth control rate), Chenopodium album” value (“Weeding effect … Chenopodium album” below) in assay [3] is on record as 5 (Level 5: growth control rate is above 85%). For the same compound, the “Weeding effect, activity level (growth control rate), Descurainia sophia” value (from here on “Weeding effect … Descurainia sophia”) in assay [4] is reported as 5 (Level 5: growth control rate is above 85%).

Take `Cn1nnnc1NC(=O)c1ccnc(-c2ccnc(C#N)n2)c1Cl` [Compound 1-165]: the “Weeding effect … Abutilon theophrasti” value in assay [1] was 5 (Level 5: growth control rate is above 85%). The “Weeding effect … Amaranthus retroflexus L.” value in assay [2] is reported as 5 (Level 5: growth control rate is above 85%). Moreover, the “Weeding effect … Chenopodium album” value in assay [3] is on record as 5 (Level 5: growth control rate is above 85%). In addition, the “Weeding effect … Descurainia sophia” value in assay [4] is given as 5 (Level 5: growth control rate is above 85%).

Turning to `Cn1nnnc1NC(=O)c1ccnc(-c2ccccc2)c1Cl` [Compound 1-8], the “Weeding effect … Abutilon theophrasti” value in assay [1] is listed as 5 (Level 5: growth control rate is above 85%). In assay [2], the “Weeding effect … Amaranthus retroflexus L.” value is 5 (Level 5: growth control rate is above 85%). Besides, the “Weeding effect … Chenopodium album” value in assay [3] is recorded as 5 (Level 5: growth control rate is above 85%). Further, in assay [4], the “Weeding effect … Descurainia sophia” value was 5 (Level 5: growth control rate is above 85%).

With `Cn1nnnc1NC(=O)c1ccnc(-c2ccc(F)nc2F)c1Cl` [Compound 1-135], the “Weeding effect … Abutilon theophrasti” value in assay [1] was 5 (Level 5: growth control rate is above 85%). Besides, in assay [2], the “Weeding effect … Amaranthus retroflexus L.” value is on record as 5 (Level 5: growth control rate is above 85%). For the same compound, the “Weeding effect … Chenopodium album” value in assay [3] is given as 5 (Level 5: growth control rate is above 85%). For the same compound, the “Weeding effect … Descurainia sophia” value in assay [4] was 5 (Level 5: growth control rate is above 85%).

Consider `Cn1nnnc1NC(=O)c1ccnc(-c2ccc(S(C)(=O)=O)cc2)c1Cl` [Compound 1-45], for which the “Weeding effect … Abutilon theophrasti” value in assay [1] is 5 (Level 5: growth control rate is above 85%). Moreover, in assay [2], the “Weeding effect … Amaranthus retroflexus L.” value is reported as 5 (Level 5: growth control rate is above 85%). For the same compound, the “Weeding effect … Chenopodium album” value in assay [3] is 5 (Level 5: growth control rate is above 85%). For the same compound, in assay [4], the “Weeding effect … Descurainia sophia” value is recorded as 5 (Level 5: growth control rate is above 85%).

In the case of `Cn1nnnc1NC(=O)c1ccnc(-c2cccc(C#N)n2)c1Cl` [Compound 1-120], the “Weeding effect … Abutilon theophrasti” value in assay [1] is listed as 5 (Level 5: growth control rate is above 85%). Moreover, the “Weeding effect … Amaranthus retroflexus L.” value in assay [2] is listed as 5 (Level 5: growth control rate is above 85%). The “Weeding effect … Chenopodium album” value in assay [3] is reported as 5 (Level 5: growth control rate is above 85%). Besides, the “Weeding effect … Descurainia sophia” value in assay [4] is recorded as 5 (Level 5: growth control rate is above 85%).

With `Cn1nnnc1NC(=O)c1ccnc(-c2cccc(Cl)c2F)c1Cl` [Compound 1-93], in assay [1], the “Weeding effect … Abutilon theophrasti” value is 5 (Level 5: growth control rate is above 85%). Also, the “Weeding effect … Amaranthus retroflexus L.” value in assay [2] was 5 (Level 5: growth control rate is above 85%). Also, the “Weeding effect … Chenopodium album” value in assay [3] was 5 (Level 5: growth control rate is above 85%). Besides, the “Weeding effect … Descurainia sophia” value in assay [4] is listed as 5 (Level 5: growth control rate is above 85%).

With `CN(C)C(=O)c1ccc(-c2nccc(C(=O)Nc3nnnn3C)c2Cl)cc1` [Compound 1-1925], the “Weeding effect … Abutilon theophrasti” value in assay [1] is listed as 5 (Level 5: growth control rate is above 85%). Further, in assay [2], the “Weeding effect … Amaranthus retroflexus L.” value is 5 (Level 5: growth control rate is above 85%). In addition, in assay [3], the “Weeding effect … Chenopodium album” value was 5 (Level 5: growth control rate is above 85%). Moreover, the “Weeding effect … Descurainia sophia” value in assay [4] is recorded as 5 (Level 5: growth control rate is above 85%).

`Cn1nnnc1NC(=O)c1ccnc(-c2cc(F)cc(C#N)c2)c1Cl` [Compound 1-81]: the “Weeding effect … Abutilon theophrasti” value in assay [1] is 5 (Level 5: growth control rate is above 85%). The “Weeding effect … Amaranthus retroflexus L.” value in assay [2] is given as 5 (Level 5: growth control rate is above 85%). In addition, the “Weeding effect … Chenopodium album” value in assay [3] is recorded as 5 (Level 5: growth control rate is above 85%). Also, the “Weeding effect … Descurainia sophia” value in assay [4] was 5 (Level 5: growth control rate is above 85%).

As to `Cn1nnnc1NC(=O)c1ccnc(-c2cccnc2)c1Cl` [Compound 1-124], in assay [1], the “Weeding effect … Abutilon theophrasti” value was 5 (Level 5: growth control rate is above 85%). The “Weeding effect … Amaranthus retroflexus L.” value in assay [2] was 5 (Level 5: growth control rate is above 85%). Moreover, the “Weeding effect … Chenopodium album” value in assay [3] is listed as 5 (Level 5: growth control rate is above 85%). In assay [4], the “Weeding effect … Descurainia sophia” value is 5 (Level 5: growth control rate is above 85%).

As to `Cn1nnnc1NC(=O)c1ccnc(-c2cc(C(F)(F)F)ccc2F)c1Cl` [Compound 1-75], the “Weeding effect … Abutilon theophrasti” value in assay [1] was 5 (Level 5: growth control rate is above 85%). Also, the “Weeding effect … Amaranthus retroflexus L.” value in assay [2] is recorded as 5 (Level 5: growth control rate is above 85%). Further, the “Weeding effect … Chenopodium album” value in assay [3] is 5 (Level 5: growth control rate is above 85%). For the same compound, in assay [4], the “Weeding effect … Descurainia sophia” value is recorded as 5 (Level 5: growth control rate is above 85%).

`COc1ccc(-c2nccc(C(=O)Nc3nnnn3C)c2Cl)cc1C=O` [Compound 1-99]: the “Weeding effect … Abutilon theophrasti” value in assay [1] is listed as 5 (Level 5: growth control rate is above 85%). Further, the “Weeding effect … Amaranthus retroflexus L.” value in assay [2] is 5 (Level 5: growth control rate is above 85%). Also, the “Weeding effect … Chenopodium album” value in assay [3] is given as 5 (Level 5: growth control rate is above 85%). Besides, in assay [4], the “Weeding effect … Descurainia sophia” value is 5 (Level 5: growth control rate is above 85%).

Turning to `Cn1nnnc1NC(=O)c1ccnc(-c2ncc(C#N)cn2)c1Cl` [Compound 1-163], the “Weeding effect … Abutilon theophrasti” value in assay [1] was 5 (Level 5: growth control rate is above 85%). For the same compound, the “Weeding effect … Amaranthus retroflexus L.” value in assay [2] is 5 (Level 5: growth control rate is above 85%). For the same compound, the “Weeding effect … Chenopodium album” value in assay [3] was 5 (Level 5: growth control rate is above 85%). Also, the “Weeding effect … Descurainia sophia” value in assay [4] is 5 (Level 5: growth control rate is above 85%).

`Cn1nnnc1NC(=O)c1ccnc(-c2ccc(Cl)nc2)c1Cl` [Compound 1-129]: in assay [1], the “Weeding effect … Abutilon theophrasti” value was 5 (Level 5: growth control rate is above 85%). For the same compound, the “Weeding effect … Amaranthus retroflexus L.” value in assay [2] is 5 (Level 5: growth control rate is above 85%). In addition, in assay [3], the “Weeding effect … Chenopodium album” value is reported as 5 (Level 5: growth control rate is above 85%). Moreover, in assay [4], the “Weeding effect … Descurainia sophia” value is recorded as 5 (Level 5: growth control rate is above 85%).
